Reference: patent US12139478B2, “Compounds, compositions and methods” (Denali Therapeutics Inc., priority 2017, dated 2024)
Where two headings read alike, the source gives them in different places.

Tested on: ATF4 translation
Assay: ATF4 Nano Luciferase reporter integrated stress response (ISR) assay in H4 ATF4-NLuc cells
Type: cell-based, human
Settings: Homo sapiens, 0.5 h, H4 ATF4-NLuc (clone 17) cells, compound 30 minutes, then sodium arsenite for 6 additional hours, luminescence readout
Text: Cellular stress leads to activation of the integrated stress response pathway through one of four eukaryotic initiation factor 2a kinases and halts global translation, while allowing for the translation of select transcripts like ATF4 (activating transcription factor 4) that are important for the response to cellular stress. During normal conditions, small open reading frames (ORFs) in the 5′ UTR of ATF4 occupy the ribosome and prevent translation of the coding sequence of ATF4. During stress conditions however, the ribosome scans past these upstream ORFs and preferentially begins translation at the coding sequence of ATF4. In this way, the translation, and thus protein level of ATF4 is a readout of ISR pathway activation. Thus, a fusion of the uORFs and the beginning of the coding sequence of ATF to a common cellular reporter like nano-luciferase allows for a sensitive and high-throughput readout of ISR pathway activity.
Compounds as provided herein were tested in the following assay. The ATF4 Nano Luciferase reporter was constructed by fusing the human full length 5′ untranslated region (5′-UTR) and a small portion of the coding sequence of the ATF4 gene upstream of the Nano Luciferase (NLuc) coding sequence lacking it's start codon. Specifically, nucleotides +1 through +364 (relative to the transcriptional start site) of ATF4 transcript variant 2 (NCBI NM_182810.2) flanked 5′ by EcoRI and 3′ by BamHI restriction enzyme sites were synthesized and cloned into the EcoRI/BamHI cloning sites of pLVX-EF1a-IRES-Puro lentivirus vector (Clontech). Lentiviral particles were produced with Lenti-X single shots (VSV-G, Clontech) according to the manufacturer's instructions and used to transduce a human H4 neuroglioma cell line (ATCC HTB-148). H4 cells were selected with 1.25 μg/mL Puromycin, and clonal cell lines generated by limiting dilution. We utilized this cell line to generate an integrated stress response (ISR) assay to evaluate the activity of ISR pathway inhibitors via luminescence readout. The H4 ATF4-NLuc (clone 17) cell line is plated at a density of […] in 96-well or 384-well respectively in DMEM+[…]. 24-hours later test compounds diluted in dimethyl sulfoxide (DMSO) are added for 30 minutes at 37° C., followed by ISR pathway activation with […] sodium arsenite aqueous solution for 6 additional hours. Nano Glo luciferase reagent (N1150, Promega) is added according to manufacturer instructions and the luminescence signal (corresponding to the level of ATF4 translation and thus ISR pathway activation) is read with a standard plate reader with luminescence detection capabilities. […] In the tables below, activity of the tested compounds is provided, and in Table 3 as follows: […]; ++=IC50 1-10 μM; +=IC50>10 μM.

[1] = read-out: Biological Example 1 (ATF4 translation, IC50 nM)

SMILES | IC50 (read-out: Activity) [nM] | IC50 [1] [nM]
COC1C[C@@H](c2nnc([C@H]3C[C@@H](OC(F)(F)F)C3)o2)OC[C@@H]1NC(=O)COc1ccc(F)cc1 (stereo partly drawn) [Example 33, 2-(4-fluorophenoxy)-N-((3S,6S)-4-methoxy-6-(5-(3-cis-(trifluoromethoxy)cyclobutyl)-1,3,4-oxadiazol-2-yl)tetrahydro-2H-pyran-3-yl)acetamide] | < 1000 | 421
O=C(COc1ccc(F)c(F)c1)NC12CCC(c3nnc([C@H]4C[C@@H](OC(F)(F)F)C4)o3)(CC1)OC2 [Example 25, 2-(3,4-difluorophenoxy)-N-[1-[5-[3-cis-(trifluoromethoxy)cyclobutyl]-1,3,4-oxadiazol-2-yl]-2-oxabicyclo[2.2.2]octan-4-yl]acetamide] | < 1000 | –
O=C(N[C@@H]1CC[C@@H](c2nnc(C3CC(OC(F)(F)F)C3)o2)OC1)N1CCC(OC(F)(F)F)C1 (stereo partly shown) [Example 51] | < 1000 | –
O=C(COc1ccc(C(F)(F)F)cc1)N[C@@H]1CC[C@@H](c2nnc([C@H]3C[C@@H](OC(F)(F)F)C3)o2)OC1 [Example 40, N-[(3R,6S)-6-[5-[3-cis-(trifluoromethoxy)cyclobutyl]-1,3,4-oxadiazol-2-yl]tetrahydropyran-3-yl]-2-[4-(trifluoromethyl)phenoxy]acetamide] | < 1000 | 2.4
O=C(COc1ccc(C(F)(F)F)cc1)N[C@H]1CO[C@H](c2nnc(C3CC(OC(F)(F)F)C3)o2)CC1(F)F (stereo partly drawn) [Example 61, N-((3S,6S)-4,4-difluoro-6-(5-(3-cis-(trifluoromethoxy)cyclobutyl)-1,3,4-oxadiazol-2-yl)tetrahydro-2H-pyran-3-yl)-2-(4-(trifluoromethyl)phenoxy)acetamide] | < 1000 | 14.4
O=C(COc1ccc(Cl)cc1)N[C@@H]1CC[C@@H](C(O)COC2CC(OC(F)(F)F)C2)OC1 (stereo partly shown) [Example 46] | < 1000 | –
O=C(COC1CC(OC(F)(F)F)C1)NC12CCC(C3CC(c4ccc(Cl)c(F)c4)=NO3)(CC1)OC2 (stereo not shown) [Example 49] | > 10000 | –
O=C(COC1CC(OC(F)(F)F)C1)NC12CCC(c3cc(-c4ccc(Cl)c(F)c4)no3)(CC1)OC2 (stereo not shown) [Example 47] | < 1000 | –
O=C(COc1ccc(F)cc1)N[C@@H]1CC[C@@H](c2nnc(C3CC(OC(F)(F)F)C3)o2)OC1 (stereo partly drawn) [Example 20, 2-(4-fluorophenoxy)-N-[(3R,6S)-6-[5-[3-cis-(trifluoromethoxy)cyclobutyl]-1,3,4-oxadiazol-2-yl]tetrahydropyran-3-yl]acetamide] | < 1000 | –
CO[C@H]1C[C@@H](NC(=O)COc2ccc(F)cc2)CO[C@@H]1c1nnc([C@H]2C[C@@H](OC(F)(F)F)C2)o1 [Example 36, 2-(4-fluorophenoxy)-N-((3R,5S,6S)-5-methoxy-6-(5-(3-cis-(trifluoromethoxy)cyclobutyl)-1,3,4-oxadiazol-2-yl)tetrahydro-2H-pyran-3-yl)acetamide] | < 1000 | –
